Legend:
[1] = tested on: patients' gliomas implanted in mice; conditions: cited from earlier work
GBM = conditions: very little gets through the BBB and reaches the tumor; cited from earlier work
[2] = Fluorescence in mouse cerebral cortex after i.v. injection of albumin-FITC; format: in vivo; conditions: FIGS. 5A, 5B
Excerpt: In addition to the peptide leu-enkephalin, and the small molecules: CF, uranyl acetate, kyotorphin and sucrose, the inventors have also successfully encapsulated in these vesicles the proteins albumin and trypsinogen and the polysaccharide Dextran-FITC (MW 9000).

| Molecule | potency rank against patients' gliomas implanted in mice ([1]; out of 40 drugs tested) | effectiveness against tumors tested ([1]; patients' gliomas implanted in mice) | outcome of attempts to treat GBM patients (GBM) | delivery of albumin-FITC to the brain (brain accumulation) [2] |
| --- | --- | --- | --- | --- |
| CCc1c2c(nc3ccc(OC(=O)N4CCC(N5CCCCC5)CC4)cc13)-c1cc3c(c(=O)n1C2)COC(=O)[C@]3(O)CC [CPT-11, (S)-4,11-diethyl-3,4,12,14-tetrahydro-4-hydroxy-3,14-dioxo1H-pyrano[3′,4′:6,7]-indolizino[1,2-b]quinolin-9-yl-[1,4′bipiperidine]-1′-carboxylate] | the most potent chemotherapeutic agent | effective against every tumor tested | unsuccessful | – |
| un-encapsulated albumin-FITC: albumin-FITC (non-encapsulated) | – | – | – | little, if any, brain accumulation |

Reference: US20220249539A1, “BOLAAMPHIPHILIC COMPOUNDS, COMPOSITIONS AND USES THEREOF” (priority 2015, published 2022)
